Converted amounts (≈) assume the structure as drawn.
What follows are compounds tested on A. baumannii strain ATCC19606 (assay: Minimum inhibitory concentration (MIC) determination, microbroth dilution (CLSI)). Conditions: Acinetobacter baumannii; A. baumannii ATCC19606; CAMHB; read after 20 hours; >=80% growth inhibition; read-out: ATCC19606 MIC.
Format: cell-based
In short: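 CLSI broth microdilution in cation-adjusted Mueller Hinton broth with twofold compound dilutions and ~5×10^5 CFU/ml inoculum, incubated at 35±2 °C. MIC read after 20 h as lowest concentration inhibiting ≥80% of growth, by eye and OD 600 nm.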

MIC [µg/mL]	SMILES
0.12 (≈ 0.15 µM)	CN1C(=O)[C@H](CCCCN)NC(=O)[C@H](CCCN)NCc2cccnc2Sc2c(Cl)ccc(-c3ccc(O)nc3)c2CNC(=O)[C@@H]1Cc1c[nH]c2ccccc12 [Example 230, (11S,14S,17S)-14-(4-Amino-butyl)-11-(3-amino-propyl)-25-chloro-22-(6-hydroxy-pyridin-3-yl)-17-(1H-indol-3-ylmethyl)-16-methyl-2-thia-4,10,13,16,19-pentaaza-tricyclo[19.4.0.0*3,8*]pentacosa-1(21),3,5,7,22,24-hexaene-12,15,18-trione]
1 (≈ 1.23 µM)	CN1C(=O)[C@H](CCCCN)NC(=O)[C@H](CCC(N)=O)NCc2cccnc2Sc2c(Cl)ccc(-c3ccnc(F)c3)c2CNC(=O)[C@@H]1Cc1c[nH]c2ccccc12 [Example 231, 3-[(11S,14S,17S)-14-(4-Amino-butyl)-25-chloro-22-(2-fluoro-pyridin-4-yl)-17-(1H-indol-3-ylmethyl)-16-methyl-12,15,18-trioxo-2-thia-4,10,13,16,19-pentaaza-tricyclo[19.4.0.0*3,8*]pentacosa-1(21),3,5,7,22,24-hexaen-11-yl]-propionamide]
1 (≈ 1.3 µM)	CN1C(=O)[C@H](CCCCN)NC(=O)[C@H](CCCN)NCc2cccnc2Sc2c(Cl)cc(-c3cc[nH]c3)cc2CNC(=O)[C@@H]1Cc1c[nH]c2ccccc12 [Example 232, (11S,14S,17S)-14-(4-Amino-butyl)-11-(3-amino-propyl)-25-chloro-17-(1H-indol-3-ylmethyl)-16-methyl-23-(1H-pyrrol-3-yl)-2-thia-4,10,13,16,19-pentaaza-tricyclo[19.4.0.0*3,8*]pentacosa-1(25),3(8),4,6,21,23-hexaene-12,15,18-trione]
0.25 (≈ 0.336 µM)	Cc1[nH]c2ccccc2c1C[C@H]1C(=O)NCc2cc(C#N)cc(Cl)c2Sc2ncccc2CN[C@@H](CCCN)C(=O)N[C@@H](CCCCN)C(=O)N1C [Example 233, (11S,14S,17S)-14-(4-Amino-butyl)-11-(3-amino-propyl)-25-chloro-16-methyl-17-(2-methyl-1H-indol-3-ylmethyl)-12,15,18-trioxo-2-thia-4,10,13,16,19-pentaaza-tricyclo[19.4.0.0*3,8*]pentacosa-1(25),3(8),4,6,21,23-hexaene-23-carbonitrile]
2 (≈ 2.29 µM)	Cc1[nH]c2ccccc2c1C[C@H]1C(=O)NCc2cc(-c3ccc(S(C)(=O)=O)cc3)cc(Cl)c2Sc2ncccc2CN[C@@H](CCCN)C(=O)N[C@@H](CCCCN)C(=O)N1C [Example 234, (11S,14S,17S)-14-(4-Amino-butyl)-11-(3-amino-propyl)-25-chloro-23-(4-methanesulfonyl-phenyl)-16-methyl-17-(2-methyl-1H-indol-3-ylmethyl)-2-thia-4,10,13,16,19-pentaaza-tricyclo[19.4.0.0*3,8*]pentacosa-1(25),3(8),4,6,21,23-hexaene-12,15,18-trione]
0.5 (≈ 0.572 µM)	Cc1[nH]c2ccccc2c1C[C@H]1C(=O)NCc2cc(-c3ccc(S(N)(=O)=O)cc3)cc(Cl)c2Sc2ncccc2CN[C@@H](CCCN)C(=O)N[C@@H](CCCCN)C(=O)N1C [Example 235, 4-[(11S,14S,17S)-14-(4-Amino-butyl)-11-(3-amino-propyl)-25-chloro-16-methyl-17-(2-methyl-1H-indol-3-ylmethyl)-12,15,18-trioxo-2-thia-4,10,13,16,19-pentaaza-tricyclo[19.4.0.0*3,8*]pentacosa-1(25),3(8),4,6,21,23-hexaen-23-yl]-benzenesulfonamide]

The compounds below were run on A. baumannii strain ATCC17978 (assay: 50% growth inhibitory concentration (IC50) determination, Iso-Sensitest broth). Conditions: Acinetobacter baumannii; A. baumannii ATCC17978; Iso-Sensitest medium; OD 600 nm over 16 h; read-out: IC50 ATCC17978.
Format: cell-based
Method: The in vitro antimicrobial activity of the compounds was alternatively determined according to the following procedure:
The assay used a 10-points Iso-Sensitest broth medium to measure quantitatively the in vitro activity of the compounds against A. baumannii ATCC 17978.
Stock compounds in DMSO were serially twofold diluted (e.g. range from 50 to 0.097 μM final concentration) in 384 wells microtiter plates and inoculated with 49 μl the bacterial suspension in Iso-Sensitest medium to have a final cell concentration of ˜5×10^(5) CFU/ml in a final volume/well of 50 ul/well. Microtiter plates were incubated at 35±2° C.
Bacterial cell growth was determined with the measurement of optical density at λ=600 nm each 20 minutes over a time course of 16 h.
Growth inhibition was calculated during the logarithmic growth of the bacterial cells with determination of the concentration inhibiting 50% (IC50) and 90% (IC90) of the growth.
Tables 3, 4 and 5 provide the 50% growth inhibitory concentrations (IC50) in micromoles per liter of the compounds of present invention obtained against the A. baumannii strain ATCC17978.

SMILES	IC50 [µM]
CN1Cc2ccccc2Sc2ccccc2CNC(=O)[C@H](Cc2c[nH]c3ccccc23)NC(=O)[C@H](CCCN)NC(=O)[C@@H]1Cc1ccc(-c2ccccc2)cc1 [Example 117, (12S,15S,18S)-15-(3-Amino-propyl)-18-biphenyl-4-ylmethyl-12-(1H-indol-3-ylmethyl)-19-methyl-2-thia-10,13,16,19-tetraaza-tricyclo[19.4.0.0*3,8*]pentacosa-1(25),3,5,7,21,23-hexaene-11,14,17-trione]	8.1
NCCCC[C@@H]1NC(=O)[C@@H](CCCN)NCc2cccnc2Sc2c(ccc(-c3ccccc3)c2Cl)CNC(=O)[C@H](Cc2c[nH]c3ccccc23)NC1=O [Example 124, (11R,14S,17S)-14-(4-Amino-butyl)-11-(3-amino-propyl)-25-chloro-17-(1H-indol-3-ylmethyl)-24-phenyl-2-thia-4,10,13,16,19-pentaaza-tricyclo[19.4.0.0*3,8*]pentacosa-1(25),3,5,7,21,23-hexaene-12,15,18-trione]	34.9
NCCCC[C@@H]1NC(=O)[C@H](CCCN)NCc2cccnc2Sc2c(ccc(-c3ccccc3)c2Cl)CNC(=O)[C@H](Cc2c[nH]c3ccccc23)NC1=O [Example 125, (11S,14S,17S)-14-(4-Amino-butyl)-11-(3-amino-propyl)-25-chloro-17-(1H-indol-3-ylmethyl)-24-phenyl-2-thia-4,10,13,16,19-pentaaza-tricyclo[19.4.0.0*3,8*]pentacosa-1(25),3,5,7,21,23-hexaene-12,15,18-trione]	23.3
CN1C(=O)[C@H](CCCCN)NC(=O)[C@@H](CCCN)NCc2cccnc2Sc2c(ccc(-c3ccccc3)c2Cl)CNC(=O)[C@@H]1Cc1c[nH]c2ccccc12 [Example 126, (11R,14S,17S)-14-(4-Amino-butyl)-11-(3-amino-propyl)-25-chloro-17-(1H-indol-3-ylmethyl)-16-methyl-24-phenyl-2-thia-4,10,13,16,19-pentaaza-tricyclo[19.4.0.0*3,8*]pentacosa-1(25),3,5,7,21,23-hexaene-12,15,18-trione]	30.3
CN1C(=O)[C@H](CCCCN)NC(=O)[C@H](CCCN)NCc2cccnc2Sc2c(Cl)ccc(C(F)(F)F)c2CNC(=O)[C@@H]1Cc1ccc2ccccc2n1 [Example 132, (11S,14S,17S)-14-(4-Amino-butyl)-11-(3-amino-propyl)-25-chloro-16-methyl-17-quinolin-2-ylmethyl-22-trifluoromethyl-2-thia-4,10,13,16,19-pentaaza-tricyclo[19.4.0.0*3,8*]pentacosa-1(25),3,5,7,21,23-hexaene-12,15,18-trione]	17
CN1C(=O)[C@H](CCCN)NC(=O)[C@H](CCCN)NCc2ccccc2Sc2c(Cl)cc(Cl)cc2CNC(=O)[C@@H]1Cc1c[nH]c2ccccc12 [Example 133, (12S,15S,18S)— 15,18-Bis-(3-amino-propyl)-4,6-dichloro-12-(1H-indol-3-ylmethyl)-13-methyl-2-thia-10,13,16,19-tetraaza-tricyclo[19.4.0.0*3,8*]pentacosa-1(25),3,5,7,21,23-hexaene-11,14,17-trione]	0.1
CN1C(=O)[C@H](CCCCN)NC(=O)[C@H](CCCN)NCc2cccnc2Sc2c(Cl)ccc(C(F)(F)F)c2CNC(=O)[C@@H]1Cc1c[nH]c2ccc(Cl)cc12 [Example 135, (11S,14S,17S)-14-(4-Amino-butyl)-11-(3-amino-propyl)-25-chloro-17-(5-chloro-1H-indol-3-ylmethyl)-16-methyl-22-trifluoromethyl-2-thia-4,10,13,16,19-pentaaza-tricyclo[19.4.0.0*3,8*]pentacosa-1(25),3,5,7,21,23-hexaene-12,15,18-trione]	0.2
CN1C(=O)[C@H](CCCCN)NC(=O)[C@H](CCCN)NCc2cccnc2Sc2c(Cl)ccc(C(F)(F)F)c2CNC(=O)[C@@H]1CC1CNc2ccccc21 (stereo partly drawn) [Example 136, (11S,14S,17S)-14-(4-Amino-butyl)-11-(3-amino-propyl)-25-chloro-17-(2,3-dihydro-1H-indol-3-ylmethyl)-16-methyl-22-trifluoromethyl-2-thia-4,10,13,16,19-pentaaza-tricyclo[19.4.0.0*3,8*]pentacosa-1(25),3,5,7,21,23-hexaene-12,15,18-trione]	0.6
CN1C(=O)[C@H](CCCCN)NC(=O)[C@H](CCCN)NCc2ccccc2Sc2c(Cl)cc(-c3ccccc3)cc2CNC(=O)[C@@H]1Cc1c[nH]c2ccccc12 [Example 140, (12S,15S,18S)-15-(4-Amino-butyl)-18-(3-amino-propyl)-4-chloro-12-(1H-indol-3-ylmethyl)-13-methyl-6-phenyl-2-thia-10,13,16,19-tetraaza-tricyclo[19.4.0.0*3,8*]pentacosa-1(25),3,5,7,21,23-hexaene-11,14,17-trione]	0.6
CN1C(=O)[C@H](CCCCN)NC(=O)[C@H](CCCN)NCc2ccccc2Sc2c(Cl)cc(-c3ccccc3Cl)cc2CNC(=O)[C@@H]1Cc1c[nH]c2ccccc12 [Example 141, (12S,15S,18S)-15-(4-Amino-butyl)-18-(3-amino-propyl)-4-chloro-6-(2-chloro-phenyl)-12-(1H-indol-3-ylmethyl)-13-methyl-2-thia-10,13,16,19-tetraaza-tricyclo[19.4.0.0*3,8*]pentacosa-1(25),3,5,7,21,23-hexaene-11,14,17-trione]	1.3
CN1C(=O)[C@H](CCCCN)NC(=O)[C@H](CCCN)NCc2ccccc2Sc2c(Cl)cc(-c3cccnc3)cc2CNC(=O)[C@@H]1Cc1c[nH]c2ccccc12 [Example 142, (12S,15S,18S)-15-(4-Amino-butyl)-18-(3-amino-propyl)-4-chloro-12-(1H-indol-3-ylmethyl)-13-methyl-6-pyridin-3-yl-2-thia-10,13,16,19-tetraaza-tricyclo[19.4.0.0*3,8*]pentacosa-1(25),3,5,7,21,23-hexaene-11,14,17-trione]	< 0.4

From US10030047B2 (Hoffmann-La Roche Inc., priority 2015, dated 2018)
